The target of data set [1] is Farnesyl pyrophosphate synthase (IspA) (Escherichia coli, UniProt P22939). The conditions noted are these: cited from earlier work; for Km: Ref Ku et al., 2005, Weaver et al., 2015.
Data set [2] has as its system Geranylgeranyl pyrophosphate synthase (GGPPS). To be noted: reported elsewhere (Hefner et al., 1998); cited from earlier work.
Data set [3] concerns the target T1, choline kinase from Saccharomyces cerevisiae (ScCK) (Saccharomyces cerevisiae, UniProt P20485).
T1 construct: S. cerevisiae (AAA34499.1), codon optimized; made in house; host or cells: E. coli BL21 (DE3)
T1 sequence (P20485 1-582): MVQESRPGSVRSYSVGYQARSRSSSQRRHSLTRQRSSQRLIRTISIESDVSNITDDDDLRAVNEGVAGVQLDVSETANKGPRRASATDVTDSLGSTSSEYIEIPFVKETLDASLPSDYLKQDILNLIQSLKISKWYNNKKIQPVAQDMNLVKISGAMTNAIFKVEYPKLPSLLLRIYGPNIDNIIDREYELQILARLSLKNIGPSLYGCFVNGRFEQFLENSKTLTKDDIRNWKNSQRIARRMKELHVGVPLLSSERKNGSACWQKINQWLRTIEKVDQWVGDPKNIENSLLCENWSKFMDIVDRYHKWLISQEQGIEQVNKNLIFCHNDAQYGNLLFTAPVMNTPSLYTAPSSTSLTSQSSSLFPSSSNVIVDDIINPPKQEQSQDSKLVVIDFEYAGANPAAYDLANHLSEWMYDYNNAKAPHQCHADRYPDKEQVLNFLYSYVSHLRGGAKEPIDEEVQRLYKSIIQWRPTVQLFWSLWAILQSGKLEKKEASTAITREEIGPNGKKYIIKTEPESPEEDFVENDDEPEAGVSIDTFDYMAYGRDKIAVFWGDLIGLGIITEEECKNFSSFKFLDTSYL
The conditions noted are these: Table 6, Ref Chatzivasileiou et al., 2018; cited from earlier work.

In data set [4] the test system is multi-enzyme system (CK, IPK, IDI, IspA, GGPPS, TDS). As to the kind of experiment: Titration of cofactors and potential inhibitors in the taxadiene multi-enzyme system. It counts as biochemical. On the procedure:
The multi-enzyme system reactions were carried out in 50 mM ammonium bicarbonate (pH 7.4) with 10 mM MgCl2, 2 mM MnCl2, 0.05% (w/v) Tween 20, 10 mM ATP, and 5 mM isoprenol at 30° C. unless otherwise stated. The solution in glass GC vials (Agilent) were overlaid with 1/10 volume of dodecane to entrap the volatile isoprenoids. An initial estimated optimal concentration of each enzyme was calculated using the rates determined by individual enzyme assays. The final optimized enzyme concentrations were determined to be 25 μg/mL CK, 15 μg/mL IPK, 25.4 μg/mL IDI, 37.15 μg/mL IspA, 8.15 μg/mL GGPPS, and 25 μg/mL for TDS.
A possible explanation for such inhibitions could be that the enzymes would salt out when a combined amount of >20 mM ATP+ADP (sodium salts) are added to the mixture. […] Since 8 moles of ATP are necessary for the synthesis of 1 mole of taxadiene, salting out of proteins by high concentrations of ATP sodium salt limits that maximum titer of taxadiene that can be achieved using this system making ATP the limiting reagent. […] Furthermore, the consumption of isoprenol in this process could not be determined due to the high variability the utilized GC-FID assay which could not accurately measure such small changes in isoprenol concentration.

Data set [5] has as its target T2, isopentenyl phosphate kinase (IPK) (Arabidopsis thaliana, UniProt Q8H1F7).
T2 construct: Arabidopsis thaliana (AAN12957.1), codon optimized; made in house; host or cells: E. coli BL21 (DE3)
T2 sequence (Q8H1F7 1-332): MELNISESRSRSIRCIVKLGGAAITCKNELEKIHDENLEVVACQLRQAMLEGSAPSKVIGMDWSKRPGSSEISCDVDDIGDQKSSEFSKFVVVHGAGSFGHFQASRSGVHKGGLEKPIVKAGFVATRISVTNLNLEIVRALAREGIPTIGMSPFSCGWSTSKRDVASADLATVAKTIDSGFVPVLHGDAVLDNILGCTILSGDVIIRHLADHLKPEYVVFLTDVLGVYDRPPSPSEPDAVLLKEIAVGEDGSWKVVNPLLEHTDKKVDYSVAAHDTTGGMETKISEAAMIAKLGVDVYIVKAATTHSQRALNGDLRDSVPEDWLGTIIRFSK
Briefly: IPK kinetics by ATP consumption, PK-LDH coupled NADH assay. It counts as biochemical. To be noted: 10 mM ATP, 30° C., pH 7.4. On the procedure:
A single colony from each strain containing one plasmid for the expression of a single enzyme was inoculated into 5 mL of sterile LB media (BD Sciences) with kanamycin and grown overnight at 37° C. One milliliter was then inoculated into a 1 L flask containing 200 mL of sterile SOB media (AMERSCO) with kanamycin. The culture was grown at 30° C. until an optical density (OD) of 0.4-0.6 (λ=600 nm). At this point protein production was induced by the addition of IPTG for a final concentration of 0.1 mM and continued at 30° C. for 3 h. Cells were harvested by centrifugation at 3750 rpm in an Allegra X12R centrifuge (Beckman-Coulter). The supernatant was removed and the cell pellets were frozen at −20° C. until purification. Proteins were visualized by SDS-PAGE performed accordingly to the manufacturer's guidelines (Bio-rad). Gradient (4-20%) gels were purchased from Biorad, as were the Kaleidoscope pre-stained protein ladder, Laemmli 4× sample buffer, Tris-glycine-SDS buffer, and mini-protean electrophoresis chambers. Gels were stained using Instant-Blue (Expedeon). Protein concentrations were very roughly estimated from the gel using Image J (NIH) in order to determine an appropriate amount of resin for purification. Protein Purification All purification steps were performed in a single day on ice and in a cold room when possible. Cell pellets were thawed and resuspended in 30 mL of NPI-10 buffer (50 mM NaH2PO4, 300 mM NaCl, 10 mM imidazole, pH 8.0) and supplemented with 0.5 mM PMSF immediately prior to cell lysis. Cells were lysed by 2-3 passages through an EmulsiFlex-C5 high-pressure homogenizer (Avestin). Lysates were then centrifuged at 4 C for 15 min to remove cellular debris. The clarified lysate was loaded onto a Ni-NTA resin (Gold Bio, capacity 50 mg/mL) which was housed in a gravity column (Thermofisher) and was pre-equilibrated with 10 column volumes (CV) of NPI-10 buffer. The column was then washed with 10 CV of NPI-20 buffer (20 mM imidazole). The enzyme was then eluted from the column by 3 CV using NPI-250 buffer (250 mM imidazole). Enzymes were then exchanged into 50 mM Tris-HCl pH 7.5 using 10 kDa Microseps (Millipore) by centrifugation and repeated buffer exchanges until the imidazole was calculated to be under 1 mM. […] Enzyme concentration was determined using a bicinchoninic acid (BCA) assay kit from Pierce using bovine serum albumin as a standard (BSA). […] The kinetics for CK were previously determined as described. The kinetics for IPK were determined by ATP consumption using a pyruvate kinase (PK) lactate dehydrogenase (LDH) coupled assay (FIGS. 16A & 16B). […] NADH was made fresh each time and the appropriate concentration was determined by constructing a standard curve using a SpectraMax M3 and selecting the highest value in the linear range. […]

Substrate in data set [6]: C=C(C)CCO
As to the kind of experiment: In vitro kinetic assay of purified choline kinase with isoprenol or prenol (LC-MS/MS). The format is biochemical, Saccharomyces cerevisiae. The conditions noted are these: other: 37° C., fixed ATP concentration, purified ScCK, pH 7.5. On the procedure: (§1) Enzyme assays for screening of isopentenol kinase activity was performed as follows. The purified enzymes were added to the enzyme assay master mix for a final concentration of 2 mM ATP, 10 mM MgCl2, 50 mM NH4HCO3 pH 7.5, and 600 μM isoprenol or prenol. They were incubated overnight at 37° C. The reactions were stopped using 5 volumes of ice-cold acetonitrile and centrifuged to remove precipitated proteins using a plate adaptor at 3273×g for 15 min. The supernatant was transferred to a new microplate and frozen at −80° C. The liquid was removed by a 4.5 L lyophilizer (Labconco) and the samples were resuspended in an equal volume of water and centrifuged again prior to quantification using LC-MS/MS.
(§2) Kinetic enzyme assays were conducted using the standard assay conditions described above with the following changes. First, the linear range of the assay was determined over a 90 min period (FIG. 3). Initial velocity appeared linear over this period. Therefore, kinetic assays were quenched after 30 min. For assays at different temperatures, the standard reaction mixture was used while the temperature was varied using a water bath. […] Afterwards, reactions were performed in the standard reaction mixture with NH4HCO3 buffer was adjusted to the appropriate pH. For Michaelis-Menten kinetics, only the concentration of isoprenol or prenol was varied between 1.5-50 μM.

Substrate in data set [7]: CC(C)=CCO
Described as above. It counts as biochemical, Saccharomyces cerevisiae. To be noted: other: 37° C., fixed ATP concentration, purified ScCK, pH 7.5. On the procedure:
as §1, §2

The text below walks through data of patent publication US11034980B2, “Microbial engineering for the production of isoprenoids” (Massachusetts Institute of Technology, priority 2018, dated 2021).

Like-named read-outs stand apart in the source and are kept apart here.

Farnesyl pyrophosphate synthase (IspA), sequence (P22939 whole entry): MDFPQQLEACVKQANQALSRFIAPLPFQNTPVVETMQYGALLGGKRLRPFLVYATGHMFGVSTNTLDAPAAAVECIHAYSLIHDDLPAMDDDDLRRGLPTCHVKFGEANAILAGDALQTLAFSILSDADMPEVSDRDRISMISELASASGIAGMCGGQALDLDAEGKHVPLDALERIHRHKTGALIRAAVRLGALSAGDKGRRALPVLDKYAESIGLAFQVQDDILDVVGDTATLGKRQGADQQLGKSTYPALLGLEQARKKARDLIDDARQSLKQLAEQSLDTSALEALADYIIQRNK

With `CC(C)=CCC/C(C)=C/COP(=O)(O)OP(=O)(O)O` [GPP, geranyl diphosphate], the Km in data set [1] (reaction IPP + GPP) was 10.3 µM. Regarding `CC(C)=CCC/C(C)=C/CC/C(C)=C/COP(=O)(O)OP(=O)(O)O` [FPP, farnesyl diphosphate], the Km in data set [2] is 7 µM. For the molecule `CC(C)=CCO` [Prenol, 3-methyl-2-buten-1-ol], in data set [3], the Km was 1.11 mM and the kcat is on record as 1.13 S^−1.

For `Nc1ncnc2c1ncn2[C@@H]1O[C@H](COP(=O)(O)OP(=O)(O)O)[C@@H](O)[C@H]1O` [ADP, adenosine diphosphate], the “effect on taxadiene production” value in data set [4] (ADP 0-20 mM in the presence of 10 mM ATP) was “Some inhibition”.

As to `Nc1ncnc2c1ncn2[C@@H]1O[C@H](COP(=O)(O)OP(=O)(O)OP(=O)(O)O)[C@@H](O)[C@H]1O` [ATP, adenosine triphosphate], in data set [4] (20 mM ATP), the “effect on taxadiene production” value is listed as “completely inhibited”. In data set [1] (Chen et al. (2017)), the “ATP levels that completely inhibited IspA” value is on record as “above 5 mM”. As for `CC(C)=CCOP(=O)(O)OP(=O)(O)O` [DMAPP, dimethylallyl pyrophosphate], the Km in data set [1] (reaction IPP + DMAPP) was 1.3 µM. With `CC(C)=CCOP(=O)(O)O` [DMAP, dimethylallyl monophosphate], in data set [5], the Michaelis-Menten constant (Km) is 35.5 µM and the kcat was 53.1 S^−1. `C=C(C)CCO` [Isoprenol, 3-methyl-3-buten-1-ol]: in data set [3], the Km is 4.54 mM and the kcat is given as 14.7 S^−1.

B1: choline kinase from Saccharomyces cerevisiae (ScCK) (Saccharomyces cerevisiae S288C) (protein)
chain: T1 sequence (P20485 1-582)
notes: S. cerevisiae (AAA34499.1), codon optimized; made in house; host or cells: E. coli BL21 (DE3)
With B1, in data set [6], the Michaelis constant (Km) turned out to be 4.539 mM and the kcat was found to be 14.7 s⁻¹. Moreover, in data set [7], the Km was 1113 µM and the kcat was 1.1 s⁻¹.
